In patent publication US8067445B2, “N,N-disubstituted aminoalkylbiphenyl antagonists of prostaglandin D2 receptors” (Panmira Pharmaceuticals, LLC, priority 2008, dated 2011):

Legend:
human DP2 receptor = target: T1, human DP2 receptor (Homo sapiens, UniProt Q9Y5Y4); assay: DP2/CRTH2 radioligand binding assay ([3H]PGD2); conditions: [3H]PGD2 binding, membranes of HEK293 cells expressing human DP2; read-out: hDP2
T1 construct: expressed in transfected cells
T1 sequence (Q9Y5Y4 1-395): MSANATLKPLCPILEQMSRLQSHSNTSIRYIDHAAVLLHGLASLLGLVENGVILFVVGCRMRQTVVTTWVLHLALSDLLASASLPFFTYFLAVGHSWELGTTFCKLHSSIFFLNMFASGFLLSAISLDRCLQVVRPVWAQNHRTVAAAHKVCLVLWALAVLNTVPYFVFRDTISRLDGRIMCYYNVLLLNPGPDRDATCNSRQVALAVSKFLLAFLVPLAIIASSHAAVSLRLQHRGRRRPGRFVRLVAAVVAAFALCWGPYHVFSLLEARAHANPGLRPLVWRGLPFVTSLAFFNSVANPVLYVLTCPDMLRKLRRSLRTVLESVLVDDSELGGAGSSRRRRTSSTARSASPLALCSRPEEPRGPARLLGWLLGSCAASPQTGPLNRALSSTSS
Procedure, shortened: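 Membranes from HEK293 cells stably expressing recombinant human DP2 incubated 60 min at room temperature with 1 nM [3H]PGD2 and compound in pH 7.4 Hepes/MnCl2/EDTA buffer, ± 0.2% human serum albumin. Bound radioactivity measured after filtration; non-specific binding defined with 10 μM PGD2. IC50 from titration curves.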

human DP1 receptor = target: T2, human DP1 receptor (Homo sapiens, UniProt Q13258); assay: DP1 radioligand binding assay ([3H]BWA868C, platelet membranes); conditions: [3H]BWA868C binding, human platelet membranes; read-out: hDP1
T2 construct: tissue Biological Specialty Corporation; host or cells: human platelet membranes
T2 sequence (Q13258 1-359): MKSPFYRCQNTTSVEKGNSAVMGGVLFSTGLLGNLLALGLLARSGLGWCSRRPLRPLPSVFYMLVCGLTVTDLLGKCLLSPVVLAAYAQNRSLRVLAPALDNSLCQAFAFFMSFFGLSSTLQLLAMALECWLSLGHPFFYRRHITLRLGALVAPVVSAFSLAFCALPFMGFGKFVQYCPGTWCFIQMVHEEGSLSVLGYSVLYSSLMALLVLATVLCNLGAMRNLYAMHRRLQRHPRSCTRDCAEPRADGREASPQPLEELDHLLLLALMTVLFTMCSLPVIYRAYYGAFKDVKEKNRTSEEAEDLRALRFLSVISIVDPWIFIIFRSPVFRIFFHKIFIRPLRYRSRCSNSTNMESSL
Procedure, shortened: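 Human platelet membranes (20 μg protein/well) incubated 60 min at room temperature with 2 nM [3H]BWA868C and compound in 50 mM Hepes, 10 mM MnCl2, 1 mM EDTA, pH 7.4, ± 0.2% human serum albumin. Bound radioactivity measured after filtration; nonspecific binding defined with 10 μM BWA868C; IC50 from titration curves.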

[1] = target: T3, recombinant human CRTH2 receptor (Homo sapiens, UniProt Q9Y5Y4); assay: GTPγS binding assay; format: biochemical; conditions: +HSA (0.2% human serum albumin), 80 nM PGD2, CHO cell membranes; read-out: hDP2 GTPγS μM (+HSA)
T3 construct: expressed in transfected cells
T3 sequence (Q9Y5Y4 1-395): T1 sequence (Q9Y5Y4 1-395)
Protocol: The ability of a compound to inhibit binding of GTP to DP2 is assessed via a membrane GTPγS assay. CHO cells stably expressing the recombinant human CRTH2 receptor are resuspended in 10 mM Hepes, 7.4 containing 1 mM DTT, lysed and centrifuged at 75,000×g to pellet the membranes. The membranes are resuspended in 10 mM Hepes, 7.4 containing 1 mM DTT and 10% glycerol. […] The reactions are terminated by rapid filtration through Whatman GF/B glass fibre filter plates. The filter plates are washed 3 times with 1 ml cold Assay Buffer and dried. Scintillant is then added to the plates and the radioactivity retained on the filters is determined on a Packard TopCount (Perkin Elmer). Specific binding is determined as total radioactive binding minus non-specific binding in the absence of the ligand (80 nM PGD2). IC50s were determined using Graphpad prism analysis of drug titration curves.

SMILES	IC50 (human DP2 receptor) [µM]	IC50 (human DP1 receptor) [µM]	IC50 [1] [µM]
COc1ccc(CC(=O)O)cc1-c1ccc(C(F)(F)F)cc1CN(CC(C)(C)C)C(C)=O [Compound 1-3, (2′-{[Acetyl-(2,2-dimethyl-propyl)-amino]-methyl}-6-methoxy-4′-trifluoromethyl-biphenyl-3-yl)-acetic acid]	< 0.3	1 to 30	< 0.3
COc1ccc(CC(=O)O)cc1-c1ccc(C(F)(F)F)cc1CN(CCO)C(C)=O [Compound 1-5, (2′-{[Acetyl-(2-hydroxy-ethyl)-amino]-methyl}-6-methoxy-4′-trifluoromethyl-biphenyl-3-yl)-acetic acid]	< 0.3	1 to 30	0.3 to 1
COCCN(Cc1cc(C(F)(F)F)ccc1-c1cc(CC(=O)O)ccc1OC)C(C)=O [Compound 1-6, (2′-{[Acetyl-(2-methoxy-ethyl)-amino]-methyl}-6-methoxy-4′-trifluoromethyl-biphenyl-3-yl)-acetic acid]	< 0.3	1 to 30	< 0.3
COc1ccc(CC(=O)O)cc1-c1ccc(C(F)(F)F)cc1CN(CCN(C)C)C(C)=O [Compound 1-7, (2′-{[Acetyl-(2-dimethylamino-ethyl)-amino]-methyl}-6-methoxy-4′-trifluoromethyl-biphenyl-3-yl)-acetic acid]	0.3 to 1	1 to 30	0.3 to 1
COc1ccc(CC(=O)O)cc1-c1ccc(C(F)(F)F)cc1CN(CC(=O)O)C(C)=O [Compound 1-8, {2′-[(Acetyl-carboxymethyl-amino)-methyl]-6-methoxy-4′-trifluoromethyl-biphenyl-3-yl}-acetic acid]	1 to 30	1 to 30	1 to 30
COc1ccc(CC(=O)O)cc1-c1ccc(C(F)(F)F)cc1CN(CC(N)=O)C(C)=O [Compound 1-9, {2′-[(Acetyl-carbamoylmethyl-amino)-methyl]-6-methoxy-4′-trifluoromethyl-biphenyl-3-yl}-acetic acid]	0.3 to 1	1 to 30	0.3 to 1
COc1ccc(CC(=O)O)cc1-c1ccc(C(F)(F)F)cc1CN(C(C)=O)[C@@H]1CCc2ccccc21 [Compound 1-13, {2′-[((R)-Acetyl-indan-1-yl-amino)-methyl]-6-methoxy-4′-trifluoromethyl-biphenyl-3-yl}-acetic acid]	0.3 to 1	< 0.3	0.3 to 1
COc1ccc(CC(=O)O)cc1-c1ccc(C(F)(F)F)cc1CN(C(C)=O)[C@H]1CCc2ccccc21 [Compound 1-14, {2′-[((S)-Acetyl-indan-1-yl-amino)-methyl]-6-methoxy-4′-trifluoromethyl-biphenyl-3-yl}-acetic acid]	< 0.3	1 to 30	< 0.3
COc1ccc(CC(=O)O)cc1-c1ccc(C(F)(F)F)cc1CN(C(C)=O)C1Cc2ccccc2C1 [Compound 1-17, {2′-[(Acetyl-indan-2-yl-amino)-methyl]-6-methoxy-4′-trifluoromethyl-biphenyl-3-yl}-acetic acid]	< 0.3	1 to 30	< 0.3

The next lines start with the values.

IC50 (human DP2 receptor) [µM]	IC50 (human DP1 receptor) [µM]	IC50 [1] [µM]	SMILES
0.3 to 1	1 to 30	0.3 to 1	COc1ccc(CC(=O)O)cc1-c1ccc(C(F)(F)F)cc1CN(C(C)=O)c1ccccc1 [Compound 1-18, {2′-[(Acetyl-phenyl-amino)-methyl]-6-methoxy-4′-trifluoromethyl-biphenyl-3-yl}-acetic acid]
< 0.3	1 to 30	< 0.3	COc1ccc(CC(=O)O)cc1-c1ccc(C(F)(F)F)cc1CN(Cc1ccccc1)C(C)=O [Compound 1-19, {2′-[(Acetyl-benzyl-amino)-methyl]-6-methoxy-4′-trifluoromethyl-biphenyl-3-yl}-acetic acid]
< 0.3	1 to 30	< 0.3	COc1ccc(CC(=O)O)cc1-c1ccc(C(F)(F)F)cc1CN(CCc1ccccc1)C(C)=O [Compound 1-20, {2′-[(Acetyl-phenethyl-amino)-methyl]-6-methoxy-4′-trifluoromethyl-biphenyl-3-yl}-acetic acid]
< 0.3	1 to 30	< 0.3	CCN(Cc1cc(C(F)(F)F)ccc1-c1cc(C(C)C(=O)O)ccc1OC)C(C)=O (stereo not shown) [Compound 1-21, 2-{2′-[(Acetyl-ethyl-amino)-methyl]-6-methoxy-4′-trifluoromethyl-biphenyl-3-yl}-propionic acid]
< 0.3	1 to 30	< 0.3	COC(=O)N(Cc1ccccc1)Cc1cc(C(F)(F)F)ccc1-c1cc(CC(=O)O)ccc1OC [Compound 1-24, {2′-[(Benzyl-methoxycarbonyl-amino)-methyl]-6-methoxy-4′-trifluoromethyl-biphenyl-3-yl}-acetic acid]
< 0.3		< 0.3	CCN(Cc1cc(C(F)(F)F)ccc1-c1cc(C(C)C(=O)O)ccc1OC)C(=O)NCc1ccccc1 (stereo not shown) [Compound 1-222, 2-[2′-(3-Benzyl-1-ethyl-ureidomethyl)-6-methoxy-4′-trifluoromethyl-biphenyl-3-yl]-propionic acid]
< 0.3		< 0.3	CCN(Cc1cc(C(F)(F)F)ccc1-c1cc([C@@H](C)C(=O)O)ccc1OC)C(=O)C1CC1 [Compound 1-224, (R)-2-{2′-[(Cyclopropanecarbonyl-ethyl-amino)-methyl]-6-methoxy-4′-trifluoromethyl-biphenyl-3-yl}-propionic acid]
< 0.3		< 0.3	CCOc1ccc(-c2ccc(-c3cc(CC(=O)O)ccc3OC)c(CN(CC)C(=O)NCc3ccccc3)c2)cn1 [Compound 1-228, [2′-(3-Benzyl-1-ethyl-ureidomethyl)-4′-(6-ethoxy-pyridin-3-yl)-6-methoxy-biphenyl-3-yl]-acetic acid]
< 0.3		< 0.3	CCN(Cc1cc(-c2cnn(C)c2)ccc1-c1cc(CC(=O)O)ccc1OC)C(=O)C1CC1 [Compound 1-233, [2′-[(Cyclopropanecarbonyl-ethyl-amino)-methyl]-6-methoxy-4′-(1-methyl-1H-pyrazol-4-yl)-biphenyl-3-yl]-acetic acid]
< 0.3		< 0.3	CCN(Cc1cc(-c2cnn(C)c2)ccc1-c1cc(CC(=O)O)ccc1OC)C(=O)NCc1ccccc1 [Compound 1-234, [2′-(3-Benzyl-1-ethyl-ureidomethyl)-6-methoxy-4′-(1-methyl-1H-pyrazol-4-yl)-biphenyl-3-yl]-acetic acid]
< 0.3		< 0.3	CCN(Cc1cc(C(F)(F)F)ccc1-c1cc([C@@H](C)C(=O)O)cc(C(F)(F)F)c1)C(=O)C1CC1 [Compound 1-237, (R)-2-{2′-[(Cyclopropanecarbonyl-ethyl-amino)-methyl]-5,4′-bis-trifluoromethyl-biphenyl-3-yl}-propionic acid]
1 to 30	1 to 30		CCN(Cc1cc(C(F)(F)F)ccc1-c1cc(Cc2nn[nH]n2)ccc1OC)C(=O)C1CC1 [Compound 2-7, Cyclopropanecarboxylic acid ethyl-[2′-methoxy-5′-(2H-tetrazol-5-ylmethyl)-4-trifluoromethyl-biphenyl-2-ylmethyl]-amide]
1 to 30	1 to 30		CCN(Cc1cc(C(F)(F)F)ccc1-c1cc(CC(N)=O)ccc1OC)C(=O)C1CC1 [Compound 2-8, Cyclopropanecarboxylic acid (5′-carbamoylmethyl-2′-methoxy-4-trifluoromethyl-biphenyl-2-ylmethyl)-ethyl-amide]
